Experimental data: US20180153995A1, “USE OF ANTIMICROBIAL POLYMERS FOR RE-SENSITIZATION OF MICROORGANISMS UPON EMERGENCE OF RESISTANCE TO ANTI-MICROBIAL AGENTS” (Technion Research & Development Foundation Limited, priority 2008, published 2018)
Read-outs that look alike come from different tables or passages of the source.

Experiments:
S. maltophila 748 = assay: Antibiotic MIC by microdilution with or without sub-MIC polymer; format: cell-based, Stenotrophomonas maltophila
[1] = tested on: E. coli K-12 efflux knockout mutant; format: cell-based, Escherichia coli; conditions: E. coli AG100A (efflux−)
Protocol: (§1) MICs were determined by microdilution susceptibility testing in 96-well plates (by Nunc) using inocula of 10^5 bacteria per ml. Cell populations were evaluated by optical density measurements at 620 nm and were calibrated against a set of standards. Hundred (100) μl of a bacterial suspension were added to 100 μl of culture medium (control) or to 100 μl of culture medium containing various polymer concentrations in 2-fold serial dilutions. Inhibition of proliferation was determined by optical density measurements at 620 nm after an incubation period of 24 hours at 37° C.

E. coli 16327 = assay: microbe, parasite or virus in culture; conditions: for Antibiotic MIC: E. coli 16327
Protocol: as §1
(§2) 100 μl of a bacterial suspension were added to 100 μl of culture medium (control) or to 100 μl of culture medium containing various antibiotic and C14(9-ene)KKNC12KNH2 (SEQ ID NO: 5) concentrations in 2-fold serial dilutions. Inhibition of proliferation was determined by optical density measurements at 620 nm after an incubation period of 24 hours at 37° C.

S. aureus 15819 = assay: Antibiotic MIC by microdilution with or without sub-MIC polymer; format: cell-based, Staphylococcus aureus; conditions: S. aureus 15819
[2] = tested on: E. coli K-12 resistant wild type; format: cell-based, Escherichia coli; conditions: E. coli AG100 (w.t.)
S. aureus 43300 = assay: Antibiotic MIC by microdilution with or without sub-MIC polymer; format: cell-based, Staphylococcus aureus
MRSA 15903 = assay: microbe, parasite or virus in culture; format: cell-based, Staphylococcus aureus
Protocol: The fractionary inhibitory (FIC) concentration index for combinations of two antimicrobial agents was calculated as follows: FIC index=FICA+FICB=A/MICA+B/MICB where A and B are the MIC values of agent A and agent B in the combination, MICA and MICB are the MICs of agent A and agent B alone, and FICA and FICB are the FICs of agent A and agent B.
The FIC indexes were interpreted as follows: less than 0.5 indicates a clear re-sensitizing effect; from 0.5 to 4 indicates a marginal or null re-sensitizing effect; and over 4 indicates antagonism.
Experimental data for FIG. 4 were obtained as follows.

E. coli 14384 = assay: Antibiotic MIC by microdilution with or without sub-MIC polymer; format: cell-based, Escherichia coli; conditions: E. coli 14384
Protocol: as §1, §2

[3] = +¼ MIC (1.6 μM) C12K(KNC12K)3NH2
[4] = +½ MIC (3.12 μM) C12K(KNC12K)3NH2
[5] = +⅓ MIC (2.1 μM) C12K(KNC12K)3NH2
[6] = polymer at ¼ of its MIC (Table 16)
[7] = polymer at ½ of its MIC (Table 16)
[8] = polymer at ⅓ of its MIC (Table 16)
[9] = the OAK at ¼ of its MIC (Table 17)
[10] = the OAK at ½ of its MIC (Table 17)
[11] = the OAK at ⅓ of its MIC (Table 17)
[12] = +¼ MIC (1.6 μM) C14(9-ene)KKNC12KNH2
[13] = +¼ MIC (1.6 μM) C16(9-ene)KKNC12KNH2
[14] = +½ MIC (3.12 μM) C14(9-ene)KKNC12KNH2
[15] = +½ MIC (3.12 μM) C16(9-ene)KKNC12KNH2
[16] = +⅓ MIC (2.1 μM) C14(9-ene)KKNC12KNH2
[17] = +⅓ MIC (2.1 μM) C16(9-ene)KKNC12KNH2

gentamicin
Antibiotic MIC (S. maltophila 748; [3]): 16 µg/mL | Antibiotic MIC (S. maltophila 748; [4]): 8 µg/mL | Antibiotic MIC (S. maltophila 748; [5]): 16 µg/mL | Antibiotic MIC (S. maltophila 748; no polymer (None), Table 13): 16 µg/mL | Antibiotic MIC, None ([1]; antibiotic alone (Table 16)): 4 to 8 µg/mL | Antibiotic MIC, None ([1]; antibiotic alone (Table 17)): 4 to 8 µg/mL | Antibiotic MIC in presence of C12K(NC8K)7NH2 (SEQ ID NO: 4), +¼ MIC [1, 6]: 4 µg/mL | Antibiotic MIC in presence of C12K(NC8K)7NH2 (SEQ ID NO: 4), +½ MIC [1, 7]: 2 to 4 µg/mL | Antibiotic MIC in presence of C12K(NC8K)7NH2 (SEQ ID NO: 4), +⅓ MIC [1, 8]: 4 µg/mL | Antibiotic MIC in presence of the OAK, +¼ MIC [1, 9]: 4 µg/mL | Antibiotic MIC in presence of the OAK, +½ MIC [1, 10]: 4 µg/mL | Antibiotic MIC in presence of the OAK, +⅓ MIC [1, 11]: 4 µg/mL | Antibiotic MIC (E. coli 16327; +¼ MIC (1.6 μM) C12K(KNC12K)2NH2): 8 µg/mL | Antibiotic MIC (E. coli 16327; [12]): 4 µg/mL | Antibiotic MIC (E. coli 16327; [13]): 4 µg/mL | Antibiotic MIC (E. coli 16327; +½ MIC (3.12 μM) C12K(KNC12K)2NH2): 4 µg/mL | Antibiotic MIC (E. coli 16327; [14]): 2 µg/mL | Antibiotic MIC (E. coli 16327; [15]): 4 µg/mL | Antibiotic MIC (E. coli 16327; +⅓ MIC (2.1 μM) C12K(KNC12K)2NH2): 8 µg/mL | Antibiotic MIC (E. coli 16327; [16]): 4 µg/mL | Antibiotic MIC (E. coli 16327; [17]): 4 µg/mL | Antibiotic MIC (E. coli 16327; no polymer (None), Table 9): 4 µg/mL | Antibiotic MIC (E. coli 16327; no polymer (None), Table 10): 4 µg/mL | Antibiotic MIC (E. coli 16327; no polymer (None), Table 12): 8 µg/mL | MIC, Alone (E. coli 16327; E. coli U16327, antibiotic alone (Table 22)): 4 µg/mL | MIC, ¼ + MIC OAK (E. coli 16327; E. coli U16327, with C12K(KNC10K)3NH2 (SEQ ID NO: 10) at ¼ of its MIC): 4 µg/mL | MIC, ½ + MIC OAK (E. coli 16327; E. coli U16327, with C12K(KNC10K)3NH2 (SEQ ID NO: 10) at ½ of its MIC): 2 to 4 µg/mL | MIC, ⅓ + MIC OAK (E. coli 16327; E. coli U16327, with C12K(KNC10K)3NH2 (SEQ ID NO: 10) at ⅓ of its MIC): 4 µg/mL | Antibiotic MIC, None (E. coli 16327; E. coli U-16327, antibiotic alone (Table 15)): 4 µg/mL | Antibiotic MIC in presence of C12K(NC8K)7NH2 (SEQ ID NO: 4), +¼ MIC (E. coli 16327; E. coli U-16327, polymer at ¼ of its MIC): 4 µg/mL | Antibiotic MIC in presence of C12K(NC8K)7NH2 (SEQ ID NO: 4), +½ MIC (E. coli 16327; E. coli U-16327, polymer at ½ of its MIC): 1 to 2 µg/mL | Antibiotic MIC in presence of C12K(NC8K)7NH2 (SEQ ID NO: 4), +⅓ MIC (E. coli 16327; E. coli U-16327, polymer at ⅓ of its MIC): 2 µg/mL | Antibiotic MIC (S. aureus 15819; +¼ MIC (1.6 μM) C12(5-ene)KKNC12KNH2): 1 µg/mL | Antibiotic MIC (S. aureus 15819; [3]): 1 µg/mL | Antibiotic MIC (S. aureus 15819; +¼ MIC (1.6 μM) C12KKNC12KNH2): 1 µg/mL | Antibiotic MIC (S. aureus 15819; +½ MIC (3.12 μM) C12(5-ene)KKNC12KNH2): 1 µg/mL | Antibiotic MIC (S. aureus 15819; [4]): 0.5 µg/mL | Antibiotic MIC (S. aureus 15819; +½ MIC (3.12 μM) C12KKNC12KNH2): 1 µg/mL | Antibiotic MIC (S. aureus 15819; +⅓ MIC (2.1 μM) C12(5-ene)KKNC12KNH2): 1 µg/mL | Antibiotic MIC (S. aureus 15819; [5]): 1 µg/mL | Antibiotic MIC (S. aureus 15819; +⅓ MIC (2.1 μM) C12KKNC12KNH2): 1 µg/mL | Antibiotic MIC (S. aureus 15819; no polymer (None), Table 8): 1 µg/mL | Antibiotic MIC (S. aureus 15819; no polymer (None), Table 11): 1 µg/mL | Antibiotic MIC (S. aureus 15819; no polymer (None), Table 13): 1 µg/mL | Antibiotic MIC, None ([2]; antibiotic alone (Table 16)): 4 to 8 µg/mL | Antibiotic MIC, None ([2]; antibiotic alone (Table 17)): 4 to 8 µg/mL | Antibiotic MIC in presence of C12K(NC8K)7NH2 (SEQ ID NO: 4), +¼ MIC [2, 6]: 4 µg/mL | Antibiotic MIC in presence of C12K(NC8K)7NH2 (SEQ ID NO: 4), +½ MIC [2, 7]: 2 µg/mL | Antibiotic MIC in presence of C12K(NC8K)7NH2 (SEQ ID NO: 4), +⅓ MIC [2, 8]: 4 µg/mL | Antibiotic MIC in presence of the OAK, +¼ MIC [2, 9]: 4 µg/mL | Antibiotic MIC in presence of the OAK, +½ MIC [2, 10]: 4 µg/mL | Antibiotic MIC in presence of the OAK, +⅓ MIC [2, 11]: 4 µg/mL | Antibiotic MIC (S. aureus 43300; [13]): 64 µg/mL | Antibiotic MIC (S. aureus 43300; [15]): 32 to 64 µg/mL | Antibiotic MIC (S. aureus 43300; [17]): 64 µg/mL | MIC (MRSA 15903; MRSA 15903, +¼ polymer MIC (1.6 μM) NC12(KNC12K)2NH2): 128 µg/mL | MIC (MRSA 15903; MRSA 15903, +½ polymer MIC (3.1 μM) NC12(KNC12K)2NH2): 128 µg/mL | MIC (MRSA 15903; MRSA 15903, +⅓ polymer MIC (2.1 μM) NC12(KNC12K)2NH2): 128 µg/mL | MIC (MRSA 15903; S. aureus CI-15903, +polymer (½ MIC) C12(5-ene)KKNC12KNH2): 128 µg/mL | MIC (MRSA 15903; S. aureus CI-15903, +polymer (⅓ MIC) C12(5-ene)KKNC12KNH2): 128 µg/mL | Antibiotic MIC (E. coli 14384; [12]): 4 µg/mL | Antibiotic MIC (E. coli 14384; [14]): 2 µg/mL | Antibiotic MIC (E. coli 14384; +½ MIC C12K(NC8K)5NH2): 1 to 2 µg/mL | Antibiotic MIC (E. coli 14384; [16]): 4 µg/mL | Antibiotic MIC, None (E. coli 14384; antibiotic alone (Table 15)): 4 µg/mL | Antibiotic MIC (E. coli 14384; no polymer (None), Table 9): 4 µg/mL | Antibiotic MIC (E. coli 14384; no polymer (None), Table 14): 4 µg/mL | Antibiotic MIC in presence of C12K(NC8K)7NH2 (SEQ ID NO: 4), +¼ MIC (E. coli 14384; polymer at ¼ of its MIC): 4 µg/mL | Antibiotic MIC in presence of C12K(NC8K)7NH2 (SEQ ID NO: 4), +½ MIC (E. coli 14384; polymer at ½ of its MIC): 2 µg/mL | Antibiotic MIC in presence of C12K(NC8K)7NH2 (SEQ ID NO: 4), +⅓ MIC (E. coli 14384; polymer at ⅓ of its MIC): 2 to 4 µg/mL
